Test results published in patent US10660877B2 (BRISTOL-MYERS SQUIBB COMPANY, priority 2016, dated 2020).
Read-outs that look alike come from different tables or passages of the source.

Key:
human TLR7 = human TLR7 (Homo sapiens (Human), UniProt Q9NYK1); assay: TLR7 inhibition reporter assay (HEK-Blue cells, SEAP reporter, gardiquimod stimulation); assay type: cell-based
human TLR8 = human TLR8 (Homo sapiens (Human), UniProt Q9NR97); assay: TLR8 inhibition reporter assay (HEK-Blue cells, SEAP reporter, R848 stimulation);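 note: compounds tested from 0.05 nM to 50 µM, 22 h at 37 °C, SEAP measured with HEK-Blue Detection, inhibition relative to agonist plus DMSO versus a known inhibitor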
Sequence of human TLR8 (Q9NR97 27-1041): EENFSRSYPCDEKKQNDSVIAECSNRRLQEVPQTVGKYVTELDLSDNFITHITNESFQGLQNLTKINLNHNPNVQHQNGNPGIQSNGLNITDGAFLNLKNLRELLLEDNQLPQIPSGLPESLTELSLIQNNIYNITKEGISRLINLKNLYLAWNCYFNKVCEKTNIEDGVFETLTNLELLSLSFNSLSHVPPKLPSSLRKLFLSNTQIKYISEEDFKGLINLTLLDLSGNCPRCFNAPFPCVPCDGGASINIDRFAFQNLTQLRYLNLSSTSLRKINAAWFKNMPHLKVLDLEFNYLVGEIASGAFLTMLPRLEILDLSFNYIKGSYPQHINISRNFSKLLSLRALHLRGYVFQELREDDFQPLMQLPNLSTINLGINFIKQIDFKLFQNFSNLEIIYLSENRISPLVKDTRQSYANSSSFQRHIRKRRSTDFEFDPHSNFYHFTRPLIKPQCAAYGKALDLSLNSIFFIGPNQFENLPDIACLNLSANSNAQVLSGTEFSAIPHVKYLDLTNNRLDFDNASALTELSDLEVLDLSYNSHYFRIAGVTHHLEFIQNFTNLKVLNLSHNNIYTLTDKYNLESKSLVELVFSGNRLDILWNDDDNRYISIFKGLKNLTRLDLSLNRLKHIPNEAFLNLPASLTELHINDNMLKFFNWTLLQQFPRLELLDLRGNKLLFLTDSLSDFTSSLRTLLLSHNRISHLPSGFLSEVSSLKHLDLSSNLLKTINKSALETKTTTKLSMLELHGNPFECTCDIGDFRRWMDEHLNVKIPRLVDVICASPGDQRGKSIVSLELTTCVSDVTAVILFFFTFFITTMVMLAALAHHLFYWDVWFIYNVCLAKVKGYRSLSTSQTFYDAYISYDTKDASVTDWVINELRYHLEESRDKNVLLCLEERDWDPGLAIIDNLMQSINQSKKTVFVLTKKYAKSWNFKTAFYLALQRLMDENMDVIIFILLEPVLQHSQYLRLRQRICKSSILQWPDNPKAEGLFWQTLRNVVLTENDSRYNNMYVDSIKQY

human TLR9 = human TLR9 (Homo sapiens (Human), UniProt Q9NR96); assay: TLR9 inhibition reporter assay (HEK-Blue cells, SEAP reporter, ODN2006 stimulation);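 note: compounds tested over 0.05 nM to 50 µM, 22 h incubation, inhibition taken as SEAP signal drop from agonist plus DMSO wells toward a known inhibitor control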
Sequence of human TLR9 (Q9NR96 26-1032): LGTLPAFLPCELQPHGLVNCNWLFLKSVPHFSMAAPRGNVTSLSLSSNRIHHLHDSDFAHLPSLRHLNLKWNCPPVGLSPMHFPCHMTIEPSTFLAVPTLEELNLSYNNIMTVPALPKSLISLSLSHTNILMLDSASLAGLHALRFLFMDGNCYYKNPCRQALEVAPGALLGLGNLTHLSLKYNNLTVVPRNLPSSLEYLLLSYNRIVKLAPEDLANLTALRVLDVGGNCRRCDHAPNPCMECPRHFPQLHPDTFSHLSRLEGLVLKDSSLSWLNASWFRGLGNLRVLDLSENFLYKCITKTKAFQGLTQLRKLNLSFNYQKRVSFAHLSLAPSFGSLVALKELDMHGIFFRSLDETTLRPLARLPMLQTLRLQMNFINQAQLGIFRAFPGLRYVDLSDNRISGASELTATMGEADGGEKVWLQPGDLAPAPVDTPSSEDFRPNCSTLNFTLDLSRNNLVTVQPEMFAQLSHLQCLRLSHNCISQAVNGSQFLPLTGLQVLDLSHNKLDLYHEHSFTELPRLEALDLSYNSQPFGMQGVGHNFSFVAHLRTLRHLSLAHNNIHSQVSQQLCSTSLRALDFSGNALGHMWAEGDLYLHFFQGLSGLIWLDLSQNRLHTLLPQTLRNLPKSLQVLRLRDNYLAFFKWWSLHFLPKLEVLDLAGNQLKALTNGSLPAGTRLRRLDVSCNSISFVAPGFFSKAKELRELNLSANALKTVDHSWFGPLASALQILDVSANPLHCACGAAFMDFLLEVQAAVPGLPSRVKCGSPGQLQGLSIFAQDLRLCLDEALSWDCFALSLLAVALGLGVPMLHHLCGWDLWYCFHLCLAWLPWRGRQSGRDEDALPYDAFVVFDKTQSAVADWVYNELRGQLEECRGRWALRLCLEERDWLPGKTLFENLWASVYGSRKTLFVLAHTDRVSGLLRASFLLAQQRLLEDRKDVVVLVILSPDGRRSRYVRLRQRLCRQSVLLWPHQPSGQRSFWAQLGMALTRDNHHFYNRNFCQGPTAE

[1] = HEK-Blue cells overexpressing human TLR7, gardiquimod 7.5 μM
[2] = read-out: TLR8 IC50, HEK-Blue cells overexpressing human TLR8, R848 15.9 μM
[3] = read-out: TLR9 IC50, HEK-Blue cells overexpressing human TLR9, ODN2006 5 nM

Sequence of human TLR7 (Q9NYK1 27-1049): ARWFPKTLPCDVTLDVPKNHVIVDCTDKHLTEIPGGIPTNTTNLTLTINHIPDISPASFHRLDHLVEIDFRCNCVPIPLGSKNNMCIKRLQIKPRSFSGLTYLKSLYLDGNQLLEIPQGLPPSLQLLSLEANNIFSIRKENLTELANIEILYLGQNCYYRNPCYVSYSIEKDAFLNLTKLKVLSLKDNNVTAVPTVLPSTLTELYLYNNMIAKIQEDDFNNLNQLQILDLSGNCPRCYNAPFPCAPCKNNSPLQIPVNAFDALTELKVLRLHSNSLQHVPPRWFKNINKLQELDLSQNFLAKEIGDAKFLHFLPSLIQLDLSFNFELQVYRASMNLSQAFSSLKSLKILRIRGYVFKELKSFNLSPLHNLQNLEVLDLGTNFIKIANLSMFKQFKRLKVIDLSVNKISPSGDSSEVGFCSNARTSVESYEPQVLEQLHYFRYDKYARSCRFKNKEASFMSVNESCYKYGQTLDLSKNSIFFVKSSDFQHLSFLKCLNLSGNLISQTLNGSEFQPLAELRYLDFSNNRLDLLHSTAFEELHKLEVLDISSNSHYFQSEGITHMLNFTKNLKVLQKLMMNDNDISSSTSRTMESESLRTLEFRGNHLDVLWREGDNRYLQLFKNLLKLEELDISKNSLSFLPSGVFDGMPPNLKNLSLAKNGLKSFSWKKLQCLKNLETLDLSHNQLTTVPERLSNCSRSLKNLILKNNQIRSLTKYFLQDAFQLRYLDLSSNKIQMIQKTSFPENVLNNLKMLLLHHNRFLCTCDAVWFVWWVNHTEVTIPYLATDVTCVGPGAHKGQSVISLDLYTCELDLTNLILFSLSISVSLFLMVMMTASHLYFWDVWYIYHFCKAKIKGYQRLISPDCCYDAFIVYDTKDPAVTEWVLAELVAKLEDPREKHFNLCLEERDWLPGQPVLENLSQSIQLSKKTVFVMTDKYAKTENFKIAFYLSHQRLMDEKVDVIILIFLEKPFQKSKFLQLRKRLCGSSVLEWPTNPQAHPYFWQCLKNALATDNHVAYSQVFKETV

SMILES | IC50 (human TLR7; [1]) | IC50 (human TLR8; [2]) | IC50 (human TLR9; [3]) | IC50 (human TLR7; HEK-Blue cells, gardiquimod 7.5 μM) | IC50 (human TLR8; read-out: TLR8 IC50, HEK-Blue cells, R848 15.9 μM) | IC50 (human TLR9; read-out: TLR9 IC50, HEK-Blue cells, ODN2006 5 nM)
CCc1c(-c2cc(C)nc(C)c2)[nH]c2ccc(C3CCN(C(=O)C4CC(=O)N(C)C4)CC3)cc12 (stereo not drawn) [Example 530, 4-(4-(2-(2,6-dimethylpyridin-4-yl)-3-ethyl-1H-indol-5-yl)piperidine-1-carbonyl)-1-methylpyrrolidin-2-one] | 52.2 nM | 398 nM | 5270 nM |  |  | 
CNCC(=O)N1CCC(c2ccc3[nH]c(-c4cc(C)nc(C)c4)c(CC(F)F)c3c2)CC1 [Example 535, 1-(4-(3-(2,2-difluoroethyl)-2-(2,6-dimethylpyridin-4-yl)-1H-indol-5-yl)piperidin-1-yl)-2-(methylamino)ethan-1-one] | 10 nM | 86.5 nM | 258 nM |  |  | 
Cc1cc(-c2[nH]c3ccc(C4CCN(C(=O)CNCCC(C)(C)C)CC4)cc3c2C(C)C)cc(C)n1 [Example 347, 2-((3,3-dimethylbutyl)amino)-1-(4-(2-(2,6-dimethylpyridin-4-yl)-3-isopropyl-1H-indol-5-yl)piperidin-1-yl)ethan-1-one] | 17.4 nM | 47.9 nM | 752 nM |  |  | 
Cc1cc(-c2[nH]c3ccc(C4CCN(C(=O)CN(C)C)CC4)cc3c2CC(F)F)cc(C)n1 [Example 533, 1-(4-(3-(2,2-difluoroethyl)-2-(2,6-dimethylpyridin-4-yl)-1H-indol-5-yl)piperidin-1-yl)-2-(dimethylamino)ethan-1-one] | 77.8 nM | 285 nM | 1480 nM |  |  | 
Cc1cc(-c2[nH]c3ccc(C4CCN(C(=O)C5CCN(C)C(=O)C5)CC4)cc3c2C(C)C)ccn1 (stereo not drawn) [Example 607, 4-(4-(3-isopropyl-2-(2-methylpyridin-4-yl)-1H-indol-5-yl)piperidine-1-carbonyl)-1-methylpiperidin-2-one] | 94 nM | 186 nM | > 50000 nM |  |  | 
Cc1cc(-c2[nH]c3ccc(C4CCN(Cc5ccccn5)CC4)cc3c2C(C)C)cc(C)n1 [Example 431, 2-(2,6-dimethylpyridin-4-yl)-3-isopropyl-5-(1-(pyridin-2-ylmethyl)piperidin-4-yl)-1H-indole] | 8.4 nM | 6.7 nM | 457 nM |  |  | 
Cc1cc(-c2[nH]c3ccc(C4CCN(C(C)C)CC4)cc3c2C(C)C)c(C)cn1 [Example 641, 2-(2,5-dimethylpyridin-4-yl)-3-isopropyl-5-(1-isopropylpiperidin-4-yl)-1H-indole] | 33 nM | 9.7 nM | 2670 nM |  |  | 
CCc1c(-c2ccnc(C)c2)[nH]c2ccc(C3CCN(CCC(F)(F)F)CC3)cc12 [Example 863, 3-ethyl-2-(2-methylpyridin-4-yl)-5-(1-(3,3,3-trifluoropropyl)piperidin-4-yl)-1H-indole] |  |  |  | 469 nM | 53 nM | 2450 nM
Cc1cc(-c2[nH]c3ccc(C4CCN(C(=O)CN5CCCC(F)(F)C5)CC4)cc3c2C(C)C)cc(C)n1 [Example 390, 2-(3,3-difluoropiperidin-1-yl)-1-(4-(2-(2,6-dimethylpyridin-4-yl)-3-isopropyl-1H-indol-5-yl)piperidin-1-yl)ethan-1-one] | 17.9 nM | 191 nM | 25800 nM |  |  | 
Cc1cc(-c2[nH]c3ccc(C4CCN(C(=O)CN5CC(C(F)(F)F)C[C@@H]5CO)CC4)cc3c2C(C)C)cc(C)n1 (stereo partly drawn) [Example 404, 1-(4-(2-(2,6-dimethylpyridin-4-yl)-3-isopropyl-1H-indol-5-yl)piperidin-1-yl)-2-((2R)-2-(hydroxymethyl)-4-(trifluoromethyl)pyrrolidin-1-yl)ethan-1-one] | 64.5 nM | 437 nM | 11300 nM |  |  | 
CCc1c(-c2ccncc2)[nH]c2ccc(C3CCN(C4CC(C)(C)NC(C)(C)C4)CC3)cc12 [Example 807, 3-ethyl-2-(pyridin-4-yl)-5-(2′,2′,6′,6′-tetramethyl-[1,4′-bipiperidin]-4-yl)-1H-indole] | 226 nM | 8.6 nM | 117 nM |  |  | 
Cc1cc(-c2[nH]c3ccc(C4CCN(Cc5nnn[nH]5)CC4)cc3c2C(C)C)c(C)cn1 [Example 695, 5-(1-((1H-tetrazol-5-yl)methyl)piperidin-4-yl)-2-(2,5-dimethylpyridin-4-yl)-3-isopropyl-1H-indole] | 1310 nM | 111 nM | > 50000 nM |  |  | 
Cc1cc(-c2[nH]c3ccc(C4CCN(C5CC(C)OC(C)C5)CC4)cc3c2C(C)C)cc(C)n1 (stereo not drawn) [Example 454, 2-(2,6-dimethylpyridin-4-yl)-5-(1-(2,6-dimethyltetrahydro-2H-pyran-4-yl)piperidin-4-yl)-3-isopropyl-1H-indole] | 11 nM | 10.2 nM | 358 nM |  |  | 
Cc1cc(-c2[nH]c3ccc(C4CCN(C(=O)CC5CC(=O)NC(=O)N5)CC4)cc3c2C(C)C)cc(C)n1 (stereo not drawn) [Example 129, 6-(2-(4-(2-(2,6-dimethylpyridin-4-yl)-3-isopropyl-1H-indol-5-yl)piperidin-1-yl)-2-oxoethyl)dihydropyrimidine-2,4(1H,3H)-dione] | 18.1 nM | 69.8 nM | 32300 nM |  |  | 
CC(C)c1c(-c2ccnc(C(=O)Nc3nccs3)c2)[nH]c2ccc(C3CCNCC3)cc12 [Example 477, 4-(3-isopropyl-5-(piperidin-4-yl)-1H-indol-2-yl)-N-(thiazol-2-yl) picolinamide] | 3080 nM | 1110 nM | 2190 nM |  |  | 
Cc1cc(-c2[nH]c3ccc(C4CCN(C(=O)C5CC(=O)N(C)C5)CC4)cc3c2C(C)C)ccn1 (stereo not drawn) [Example 619, 4-(4-(3-isopropyl-2-(2-methylpyridin-4-yl)-1H-indol-5-yl)piperidine-1-carbonyl)-1-methylpyrrolidin-2-one] | 51.1 nM | 67.9 nM | > 50000 nM |  |  | 
Cc1cc(-c2[nH]c3ccc(C4CCN(C(=O)C5CC(=O)N(C)C5)CC4)cc3c2C(C)C)cc(F)n1 (stereo not drawn) [Example 502, 4-(4-(2-(2-fluoro-6-methylpyridin-4-yl)-3-isopropyl-1H-indol-5-yl)piperidine-1-carbonyl)-1-methylpyrrolidin-2-one] | 28.4 nM | 156 nM | 24700 nM |  |  | 

Second part, the molecule after the results:

IC50 (human TLR7; [1]) | IC50 (human TLR8; [2]) | IC50 (human TLR9; [3]) | IC50 (human TLR7; HEK-Blue cells, gardiquimod 7.5 μM) | IC50 (human TLR8; read-out: TLR8 IC50, HEK-Blue cells, R848 15.9 μM) | IC50 (human TLR9; read-out: TLR9 IC50, HEK-Blue cells, ODN2006 5 nM) | SMILES
7.7 nM | 6.3 nM | 202 nM |  |  |  | Cc1cc(-c2[nH]c3ccc(C4CCN(Cc5c[nH]nc5C)CC4)cc3c2C(C)C)cc(C)n1 [Example 439, 2-(2,6-dimethylpyridin-4-yl)-3-isopropyl-5-(1-((3-methyl-1H-pyrazol-4-yl)methyl)piperidin-4-yl)-1H-indole]
7.3 nM | 3.5 nM | 2920 nM |  |  |  | Cc1cc(-c2[nH]c3ccc(C4CCN(C5CCCOC5)CC4)cc3c2C(C)C)c(F)cn1 (stereo not drawn) [Example 727, 2-(5-fluoro-2-methylpyridin-4-yl)-3-isopropyl-5-(1-(tetrahydro-2H-pyran-3-yl)piperidin-4-yl)-1H-indole]
2.7 nM | 4 nM | 355 nM |  |  |  | Cc1cc(-c2[nH]c3ccc(C4CCN(CC5(CO)COC5)CC4)cc3c2C(C)C)cc(C)n1 [Example 319, (3-((4-(2-(2,6-dimethylpyridin-4-yl)-3-isopropyl-1H-indol-5-yl)piperidin-1-yl)methyl)oxetan-3-yl)methanol]
6.1 nM | 2.6 nM | 90 nM |  |  |  | Cc1cc(-c2[nH]c3ccc(C4CCN(Cc5c[nH]c(C)n5)CC4)cc3c2C(C)C)cc(C)n1 [Example 426, 2-(2,6-dimethylpyridin-4-yl)-3-isopropyl-5-(1-((2-methyl-1H-imidazol-4-yl)methyl)piperidin-4-yl)-1H-indole]
0.8 nM | 2.7 nM | 145 nM |  |  |  | Cc1cc(-c2[nH]c3cc(F)c(C4CCNCC4)cc3c2C(C)C)cc(C)n1 [Example 78, 2-(2,6-dimethylpyridin-4-yl)-6-fluoro-3-isopropyl-5-(piperidin-4-yl)-1H-indole]
1.4 nM | 3.2 nM | 147 nM |  |  |  | Cc1cc(-c2[nH]c3ccc(C4CCN(CCC(N)=O)CC4)cc3c2C(C)C)cc(C)n1 [Example 314, 3-(4-(2-(2,6-dimethylpyridin-4-yl)-3-isopropyl-1H-indol-5-yl)piperidin-1-yl)propanamide]
2.4 nM | 8 nM | 610 nM |  |  |  | Cc1cc(-c2[nH]c3ccc(C4CCN(CC(C)C)CC4)cc3c2C(C)C)cc(C)n1 [Example 471, 2-(2,6-dimethylpyridin-4-yl)-5-(1-isobutylpiperidin-4-yl)-3-isopropyl-1H-indole]
5.9 nM | 5.3 nM | 5680 nM |  |  |  | Cc1cc(-c2[nH]c3ccc(C4CCN(C(=O)CCN5CCOCC5)CC4)cc3c2C(C)C)c(F)cn1 [Example 657, 1-(4-(2-(5-fluoro-2-methylpyridin-4-yl)-3-isopropyl-1H-indol-5-yl)piperidin-1-yl)-3-morpholinopropan-1-one]
1.5 nM | 2 nM | 1350 nM |  |  |  | Cc1cc(-c2[nH]c3cc(F)c(C4CCNCC4)cc3c2C(C)C)c(F)cn1 [Example 79, 6-fluoro-2-(5-fluoro-2-methylpyridin-4-yl)-3-isopropyl-5-(piperidin-4-yl)-1H-indole]
4.1 nM | 67.9 nM | 2530 nM |  |  |  | Cc1cc(-c2[nH]c3ccc(C4CCN(C(=O)CN5C[C@@H](F)C[C@H]5CO)CC4)cc3c2C(C)C)cc(C)n1 [Example 409, 1-(4-(2-(2,6-dimethylpyridin-4-yl)-3-isopropyl-1H-indol-5-yl)piperidin-1-yl)-2-((2S,4S)-4-fluoro-2-(hydroxymethyl)pyrrolidin-1-yl)ethan-1-one]
2 nM | 4 nM | 2970 nM |  |  |  | Cc1cc(-c2[nH]c3ccc(C4CCN(C(=O)CN(C)CCO)CC4)cc3c2C(C)C)c(F)cn1 [Example 680, 1-(4-(2-(5-fluoro-2-methylpyridin-4-yl)-3-isopropyl-1H-indol-5-yl)piperidin-1-yl)-2-((2-hydroxyethyl)(methyl)amino)ethan-1-one]
